# From patent publication US4960867A, “Leiurus quinquestriatus venom peptide inhibitor of calcium activated potassium channels” (priority 1989, dated 1990)
# Test system: high conductance Ca2+-activated K+ channel
# Format: biochemical
# Procedure: Single Ca^2+ -activated K^+ channel currents were monitored in excised membrane patches derived from either bovine aortic smooth muscle cells or GH3 anterior pituitary cells.
# Channel recordings were made by conventional patch clamp procedures as previously described by Hamil, O. P., et al. Using a micromanipulator, a glass micropipette (fabricated from soda lime glass, 5-10 m.OMEGA. resistance; containing 150 mM potassium chloride, 2 mM magnesium chloride, 1 5 μM calcium chloride, 10 mM HEPES, pH 7.3) was positioned on the surface of the cell, slight negative pressure was applied and the formation of a high resistance seal between the plasma membrane and pipette was monitored. Seals of 10-50×10^9 .OMEGA. were required for subsequent measurements.
# After attaining such a seal, the cell membrane was ruptured by application of a rapid negative pressure pulse and the electrode was pulled away from the cell to form an outside-facing-out excised patch at the tip of the electrode. The presence of Ca^2+ -activated K^+ channels was then determined, and such activity could be recorded in excised patches for up to two hours. Recordings were made at a holding potential of 0 to +20 mV in a bathing medium consisting of 150 mM sodium chloride, 10 mM HEPES, pH 7.3. […]
compound,measurement,value
CC[N+](CC)(CC)CC [tetraethylammonium ion],block of channel activity,rapid reversible block
